Results as given in patent US8946260B2, “17α-hydroxylase/C17,20-lyase inhibitors” (Novartis AG, priority 2010, dated 2015).

Target: T1, recombinant Human CYP17 enzyme (17-20 lyase) (Homo sapiens, UniProt P05093)
T1 construct: made in house; host or cells: A549 cells, adenoviral expression system; purified cell membrane preparations
T1 sequence (P05093 1-508): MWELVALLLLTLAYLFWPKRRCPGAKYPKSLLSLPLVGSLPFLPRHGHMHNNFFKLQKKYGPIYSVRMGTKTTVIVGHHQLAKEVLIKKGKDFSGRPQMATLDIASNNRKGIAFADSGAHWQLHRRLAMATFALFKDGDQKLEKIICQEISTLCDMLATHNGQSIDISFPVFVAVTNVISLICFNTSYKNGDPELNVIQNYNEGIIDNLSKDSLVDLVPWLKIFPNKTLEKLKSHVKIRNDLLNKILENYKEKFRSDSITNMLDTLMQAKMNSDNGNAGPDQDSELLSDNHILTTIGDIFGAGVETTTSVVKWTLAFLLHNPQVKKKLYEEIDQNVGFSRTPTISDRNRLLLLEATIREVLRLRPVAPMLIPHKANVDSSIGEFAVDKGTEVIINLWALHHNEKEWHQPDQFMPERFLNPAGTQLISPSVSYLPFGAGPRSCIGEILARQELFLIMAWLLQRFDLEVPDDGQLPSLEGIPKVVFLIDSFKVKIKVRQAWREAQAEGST
Assay: Cytochrome P450, 17-20 lyase (CYP17-lyase) assay, 17-α-hydroxy pregnenolone [21-3H] as substrate
Type: biochemical
Conditions: human CYP17 lyase, substrate 0.25 μM, room temperature, 90 minutes; for IC50: read-out: Lyase IC 50 nM Human
Method in brief: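 A549 membrane preparations expressing adenovirally delivered human CYP17 (16 μg) incubated 90 min at room temperature with 0.25 μM 17α-hydroxy pregnenolone [21-3H] and 4.2 mM NADPH in 50 mM phosphate pH 7.5. Released tritiated acetic acid counted after charcoal removal of steroids; IC50 from sigmoidal fit of % inhibition.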

Structure (SMILES)	IC50	Lyase IC 50 nM Human
Cc1ccncc1N1CCc2ccc3ncsc3c2C1=O [Example 66A, 8-(4-methylpyridin-3-yl)-7,8-dihydrothiazolo[4,5-h]isoquinolin-9(6H)-one]	11 nM	
Cc1ccncc1N1CCc2ccc(Cl)c(F)c2C1=O [Example 33A, 7-chloro-8-fluoro-2-(4-methylpyridin-3-yl)-3,4-dihydroisoquinolin-1(2H)-one]	13 nM	
O=C1c2ccc(F)cc2CCN1c1cnccc1C(F)(F)F [Example 78A, 6-fluoro-2-(4-(trifluoromethyl)pyridin-3-yl)-3,4-dihydroisoquinolin-1(2H)-one]		Not active
O=C1c2cc(C(F)(F)F)ccc2CCN1c1cnccc1CN1CCCC1 [Example 52A, 2-(4-(Pyrrolidin-1-ylmethyl)pyridin-3-yl)-7-(trifluoromethyl)-3,4-dihydroisoquinolin-1(2H)-one]	556 nM	
